# Where two headings read alike, the source gives them in different places.
# Tests used:
# [1] = Example 39 - Cell viability (tox.) in HIV-contaminated cell lines, in vitro; format: cell-based
# Method: (§1) This study was carried out at the Swedish National Bacterological Laboratory (SBL). Multi-Protein was compared to AZT and Foscarnet. All preparations were tested at dilutions from undiluted to 10^-5 (highest concentration for Multi-Protein was 5 mg/ml). The preparations were added to the cell linjes, HIV-I infected to 40-60%, under identical and standardized conditions.
# (§2) Control: 50% infected cells. Cell toxicity and percentage of infected cells measured by immunofluorescence.
# (§3) Control: 50% infected cells. Cell toxicity and percentage of infected cells measured by immanofluorescence.
# [2] = system: cell linjes, HIV-I infected to 40-60%; assay: as above; format: cell-based
# Method: as §1, §2, §3
# [3] = system: primary and secondary liver cancer; details: phase II study, Japan; T. Taguchi et al; cited from earlier work
# Yoshida Sarcoma = details: cited from earlier work
# [4] = system: mice with P388 murine leukemia; assay: Toxicity on mice with s.c. implanted P388 murine leukemia, i.p. daily during 9 consecutive days; format: in vivo; details: 9 days
# Method: It may be worth mentioning that the highest dose of PHIM (20 mg/kg) is far higher than any of the curing doses used in any of the clinical examples which have been reported earlier in this description.
structure (smiles),measurement,setting,value
Cc1cn([C@H]2C[C@H](N=[N+]=[N-])[C@@H](CO)O2)c(=O)[nH]c1=O [AZT],viability,[1],100%
same,effect on the cells in the cultures,[2],all cells in the cultures were attacked and killed
COc1cccc2c1C(=O)c1c(O)c3c(c(O)c1C2=O)C[C@@](O)(C(=O)CO)C[C@@H]3O[C@H]1C[C@H](N)[C@H](O)[C@H](C)O1 [Adriamycin],response rate (CR and PR),[3],9.5%
N.N.[Cl][Pt][Cl] [Cisplatin],tumour cells not killed,Yoshida Sarcoma; cells removed from the tumour and cultured,53%
"COc1cccc2c1C(=O)c1c(O)c3c(c(O)c1C2=O)C[C@@](O)(C(=O)CO)C[C@@H]3O[C@H]1C[C@H](N)[C@H](O)[C@H](C)O1 [DOX, doxorubicin]",Toxic death,[4]; Dose 1.25 mg/kg i.p. daily,0/6
same,Toxic death,[4]; Dose 2.5 mg/kg i.p. daily,6/6
same,Body weight change,[4]; Dose 5 mg/kg i.p. daily,-2.3 g
same,Toxic death,[4]; Dose 5 mg/kg i.p. daily,6/6
O=C(O)P(=O)(O)O [Foscarnet],viability,"[1]; Trial 1, moi 0.4, Multi-Protein: deformed cells, read-out: Cell viability (tox.)",100%
same,effect on the cells in the cultures,[2]; at low dilutions,all cells in the cultures were attacked and killed
CO[C@@]12[C@H](COC(N)=O)C3=C(C(=O)C(C)=C(N)C3=O)N1C[C@@H]1N[C@@H]12 [Mitomycin C],response rate (CR and PR),[3],20%
same,side effect profile,Yoshida Sarcoma; 0.5 mg/kg as well as lower doses,"loss of body weight, hair loss, decreased leucocytes and chronic diarrhoea"
same,effect on Yoshida Sarcoma resistant to Mitomycin C,Yoshida Sarcoma; 0.5 mg/kg or even higher doses,no effects could be detected
same,efficacy calculated as 30 days of survival of the rats,"Yoshida Sarcoma; non-resistant Yoshida Sarcoma, doses up to 0.5 mg/kg",~100%
